From patent US20130296346A1, “DIPHENYL-AMINE DERIVATIVES: USES, PROCESS OF SYNTHESIS AND PHARMACEUTICAL COMPOSITIONS” (Faes Farma, S.A., priority 2010, published 2013)
Entries after “also recorded” stand apart in the source; their conditions may differ. Marks after values point to notes of the source that are not given here.

Assays:
[1] = system: B16 melanoma mouse cells; test: Melanoma orthotopic animal model; format: in vivo; conditions: 30 mg/kg intraperitoneal
Procedure: Compound 3 dose was 30 mg/kg intraperitoneal in all of these experiments.
FIG. 5A represents a PET picture of melanoma tumor luciferase activity in vivo. The intensity of the signal is higher on tumours with more proliferative cells. […] FIG. 5C is a graph showing melanoma tumor weight after control or Compound 3 treatment. 4 different and independent experiments with n=4 animals per group were carried out.

[2] = system: colorectal cancer cells from patients with Kras mutation; test: Mutated Kras colon cancer orthotopic animal model; format: in vivo, mice; conditions: compared with vehicle control, FIG. 4A
Procedure: Using an animal model based on colorectal cancer cells from patients with Kras mutation, implanted on mice in the colon area (Yao, M. Cyclooxygenase-2 selective inhibition with NS-398 suppresses proliferation and invasiveness and delays liver metastasis in colorectal cancer. Br. J. Cancer, 2004 Feb. 9; 90(3):712-9), the effects of Compound 3 were tested.

[3] = system: MM1S cells; test: Multiple myeloma xenograft animal model; format: in vivo, CB17-SCID mice; conditions: 2.5 mg/kg i.v. 3 times/week
Procedure: The multiple myeloma (MM) MM1S cell line was cultured in RPMI-1640 medium containing 10% (v/v) heat-inactivated fetal bovine serum, 2 mM L-glutamine, 100 U/ml penicillin, and 100 μg/ml streptomycin at 37° C. in humidified 95% air and 5% CO2. Cells were periodically tested for Mycoplasma infection and found to be negative.
CB 17-severe combined immunodeficiency (SCID) mice (Charles River laboratories, Lyon, France), kept and handled according to institutional guidelines, complying with Spanish legislation under a 12/12 h light/dark cycle at a temperature of 22° C., received a standard diet and acidified water ad libitum. CB17-SCID mice were inoculated subcutaneously into their lower dorsum with 3×10^7MM1S cells in 100 μl PBS and 100 μl Matrigel basement membrane matrix (Becton Dickinson). When tumors were palpable, mice were randomly assigned into cohorts of 10 mice each, receiving i.v. administration (3 times/week) of the compound at the tail. The volume used for each i. v. administration was […] rendering a final drug concentration of 2.5 mg/kg (body weight). Mice i.v. administered with an equal volume of vehicle were run in parallel. The shortest and longest diameter of the tumor were measured with calipers, and tumor volume (10^−3 cm^3) was calculated using the following standard formula: […]. Animals were sacrificed, according to institutional guidelines, when the diameter of their tumors reached 3 cm or when significant toxicity was observed. Animal body weight and any sign of morbidity were monitored. Drug treatment was for 1 month. Then, tumors were isolated, measured and weighed, and a necropsy analysis involving tumors and distinct organs was carried out.

[4] = system: EHEB cells; test: Chronic lymphocytic leukaemia xenograft animal model; format: in vivo, CB17-SCID mice
Procedure: The chronic lymphocytic leukaemia (CLL) EHEB cell line was cultured in RPMI-1640 medium containing 10% (v/v) heat-inactivated fetal bovine serum, 2 mM L-glutamine, 100 U/ml penicillin, and 100 μg/ml streptomycin at 37° C. in humidified 95% air and 5% CO2. Cells were periodically tested for Mycoplasma infection and found to be negative. CB17-severe combined immunodeficiency (SCID) mice (Charles River laboratories, Lyon, France), kept and handled according to institutional guidelines, complying with Spanish legislation under a 12/12 h light/dark cycle at a temperature of 22° C., received a standard diet and acidified water ad libitum. CB17-SCID mice were inoculated subcutaneously into their lower dorsum with 1.5×10^7 EHEB cells in 100 μl PBS and 100 μl Matrigel basement membrane matrix (Becton Dickinson). When tumors were palpable, mice were randomly assigned into cohorts of 10 mice each, receiving i.v. administration (3 times/week) of the compound at the tail. The volume used for each i. v. administration was […] rendering a final drug concentration of 2.5 mg/kg (body weight). Mice i. v. administered with an equal volume of vehicle were run in parallel. The shortest and longest diameter of the tumor were measured with calipers, and tumor volume (10^−3 cm^3) was calculated using the following standard formula: (the shortest diameter)^2×(the longest diameter)×0.5. Animals were sacrificed, according to institutional guidelines, when the diameter of their tumors reached 3 cm or when significant toxicity was observed. Animal body weight and any sign of morbidity were monitored. Drug treatment lasted for 41 days. Then, tumor xenografts were isolated, measured and weighed, and a necropsy analysis involving tumors and distinct organs was carried out. All values were expressed as means±SD. Statistical differences between groups were assessed using the Mann-Whitney test or the Student's t-test. A p value of less than 0.05 was considered statistically significant. Results are depicted in FIG. 1.

[5] = system: human patient chronic lymphocytic leukaemia cells; test: Viability of chronic lymphocytic leukaemia cells from patients; format: cell-based; conditions: cells with different ZAP70 expression
Procedure: A panel of 6 human patient chronic lymphocytic leukaemia cells was chosen showing different patterns of ZAP70 expression (see cytogenetic changes notated in the table 5). Cells were incubated in the presence of compound 3. Results of this study, showing the viability are depicted in FIG. 3.

[6] = 2.5 mg/kg i.v. 3 times/week, 41 days
[7] = ex vivo after 41 days, 2.5 mg/kg i.v. 3 times/week
[8] = vs control, 2.5 mg/kg i.v. 3 times/week, 41 days

Fc1ccc(CNCCCC=C(c2ccccc2)c2ccccc2)cc1 [Compound 3, (5,5-diphenyl-pent-4-enyl)-(4-fluoro-benzyl)-amine hydrocloride]
in vivo antitumor activity, melanoma [1]: potent in vivo antitumor activity | tumour volume of human colorectal cancer [2]: clear reduction effect of the tumour volume | MM tumor volume, difference over the control for all measure days ([3]; 1 month): stadistically significant | Tumor Volume ([3]; ex vivo after 1 month): 0.288 cm^3 | Tumor Weight ([3]; ex vivo after 1 month): 0.647 g | Inhibition (%) of Tumor Volume ([3]; vs control, 1 month): 92.26** % | Inhibition (%) of Tumor Weight ([3]; vs control, 1 month): 85.84* % | CLL tumor growth compared with the control group [4, 6]: inhibited CLL tumor growth; also recorded: stadistically significant | necropsy analysis of distinct organs [4, 6]: No significant events or changes in the distinct organs | vascularization of isolated tumors ([4]; compared to drug-free tumor-bearing control mice): very little vascularization | Tumor Volume [4, 7]: 0.487 cm^3 | Tumor Weight [4, 7]: 0.932 g | Inhibition (%) of Tumor Volume [4, 8]: 74.88** % | Inhibition (%) of Tumor Weight [4, 8]: 50.69** % | decrease of viability of patient CLL cells [5]: more significant in cell with a low expression of ZAP70
